For one data set, the system named is HepG2.2.15 cell line. The note with it: MTT assay. (In general: Tetrazolium dyes change colour on reduction, which living cells bring about.)
Data set [1] concerns HBV-transgenic mice (strain 1.3.32). Format: in vivo. The note with it: oral gavage once daily for 14 days.

Regarding `Fc1cccc(Cl)c1C1CC(c2ccc(Cl)cc2)Nc2ncnn21` (racemic) [Compound 1a, 7-(2-Chloro-6-fluorophenyl)-5-(4-chlorophenyl)-4,5,6,7-tetrahydro-[1,2,4]triazolo[1,5-a]pyrimidine], in the data set with HepG2.2.15 cell line, the “No cytotoxicity observed up to the highest concentration tested” value is over 50 µM. Besides, in data set [1], the “alanine transaminase (ALT) and bilirubin” value was “elevated levels of alanine transaminase (ALT) and bilirubin in a minority of treated animals”; the “other serum chemistry changes” value is “did not result in any other obvious and significant dose-dependent serum chemistry changes”; the total sodium entry is recorded as “slight rise in total sodium”. Moreover, in data set [1] (25 and 7.9 mg/kg), the “deaths as a result of compound exposure” value is recorded as “No animals were observed to have died as a result of compound exposure” and the “weight loss, morphological or behavioral changes” value is recorded as “No weight loss, morphological or behavioral changes were noted”. Besides, the tolerability result with CL57BL/6 mice (CL57BL/6 (normal) mice) is “well-tolerated”. In the data set on CL57BL/6 mice (single intravenous bolus 25 mg/kg, 24 hours), the “platelets, neutrophils, lymphocytes (trend)” value was “trend towards reduction of platelets and neutrophils, and also an increase in lymphocytes”. Moreover, the serum chemistry entry with CL57BL/6 mice (single intravenous bolus, […] 1a and 7.9 mg/kg 3c respectively, 24 hours) is recorded as “unaffected”.

Turning to `Fc1cccc(F)c1C1C=C(c2ccc(Cl)cc2)Nc2ncnn21` (centres unmarked) [Compound 3c, 5-(4-Chlorophenyl)-7-(2,6-difluorophenyl)-4,7-dihydro-[1,2,4]triazolo[1,5-a]pyrimidine], the “deaths as a result of compound exposure” value in data set [1] (25 and 7.9 mg/kg) is “No animals were observed to have died as a result of compound exposure”.

`Fc1cccc(Cl)c1C1CC(c2ccc(Cl)cc2)Nc2ncnn21` (single isomer, unassigned) [enantiomer 1 of 1a]: the “No cytotoxicity observed up to the highest concentration tested” value in the data set with HepG2.2.15 cell line is over 50 µM.

The values are drawn from article PMC3158247 (Journal of medicinal chemistry, 2011).
